Laboratory results as given in ChEMBL document CHEMBL1909294, “Translating clinical findings into knowledge in drug safety evaluation--drug induced liver injury prediction system (DILIps)” (PLoS Comput Biol, 2011).

Columns and labels:
Hepatotoxicity [1] = test system: Hepatotoxicity;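 as to HepSE cholecystitis: Cholecystitis-related hepatic side effect score drawn from the DILIps (drug-induced liver injury prediction) training data set; call rule not given here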;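 as to HepSE cholelithiasis: hepatic side effect score for cholelithiasis, drawn from the DILIps training data for predicting drug-induced liver injury; call rule not given here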;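 as to HepSE cirrhosis: cirrhosis hepatic side effect score taken from the DILIps (drug-induced liver injury prediction) training set; call rule not given here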;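 as to HepSE hepatitis: Hepatitis-related hepatic side effect score taken from the training data of DILIps, a prediction system for drug-induced liver injury; call rule not given here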;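 as to HepSE hepatomegaly: hepatic side effect score for hepatomegaly, taken from the training set of the DILIps drug-induced liver injury prediction system; call rule not given here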;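 as to HepSE jaundice: Jaundice-related hepatic side-effect score drawn from the training data of the DILIps (drug-induced liver injury prediction system); call rule not given here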
Hepatotoxicity [2] = test system: Hepatotoxicity; remark: listed apart in the source;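 as to HepSE cholecystitis: Cholecystitis-related hepatic side effect score drawn from the DILIps (drug-induced liver injury prediction) training data set; call rule not given here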;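 as to HepSE cholelithiasis: hepatic side effect score for cholelithiasis, drawn from the DILIps training data for predicting drug-induced liver injury; call rule not given here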;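 as to HepSE cirrhosis: cirrhosis hepatic side effect score taken from the DILIps (drug-induced liver injury prediction) training set; call rule not given here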;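 as to HepSE hepatitis: Hepatitis-related hepatic side effect score taken from the training data of DILIps, a prediction system for drug-induced liver injury; call rule not given here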;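 as to HepSE hepatomegaly: hepatic side effect score for hepatomegaly, taken from the training set of the DILIps drug-induced liver injury prediction system; call rule not given here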;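 as to HepSE jaundice: Jaundice-related hepatic side-effect score drawn from the training data of the DILIps (drug-induced liver injury prediction system); call rule not given here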
Hepatotoxicity [3] = test system: Hepatotoxicity; remark: listed apart in the source;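 as to HepSE cholecystitis: Cholecystitis-related hepatic side effect score drawn from the DILIps (drug-induced liver injury prediction) training data set; call rule not given here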;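 as to HepSE cholelithiasis: hepatic side effect score for cholelithiasis, drawn from the DILIps training data for predicting drug-induced liver injury; call rule not given here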;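 as to HepSE cirrhosis: cirrhosis hepatic side effect score taken from the DILIps (drug-induced liver injury prediction) training set; call rule not given here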;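 as to HepSE hepatitis: Hepatitis-related hepatic side effect score taken from the training data of DILIps, a prediction system for drug-induced liver injury; call rule not given here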;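 as to HepSE hepatomegaly: hepatic side effect score for hepatomegaly, taken from the training set of the DILIps drug-induced liver injury prediction system; call rule not given here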;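 as to HepSE jaundice: Jaundice-related hepatic side-effect score drawn from the training data of the DILIps (drug-induced liver injury prediction system); call rule not given here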
Hepatotoxicity [4] = test system: Hepatotoxicity; remark: listed apart in the source;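 as to HepSE cholelithiasis: hepatic side effect score for cholelithiasis, drawn from the DILIps training data for predicting drug-induced liver injury; call rule not given here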;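 as to HepSE cirrhosis: cirrhosis hepatic side effect score taken from the DILIps (drug-induced liver injury prediction) training set; call rule not given here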;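 as to HepSE hepatitis: Hepatitis-related hepatic side effect score taken from the training data of DILIps, a prediction system for drug-induced liver injury; call rule not given here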;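 as to HepSE hepatomegaly: hepatic side effect score for hepatomegaly, taken from the training set of the DILIps drug-induced liver injury prediction system; call rule not given here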;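 as to HepSE jaundice: Jaundice-related hepatic side-effect score drawn from the training data of the DILIps (drug-induced liver injury prediction system); call rule not given here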
Hepatotoxicity [5] = test system: Hepatotoxicity; remark: listed apart in the source
Hepatotoxicity [6] = test system: Hepatotoxicity; remark: listed apart in the source
Hepatotoxicity [7] = test system: Hepatotoxicity; remark: listed apart in the source
Hepatotoxicity [8] = test system: Hepatotoxicity; remark: listed apart in the source
Hepatotoxicity [9] = test system: Hepatotoxicity; remark: listed apart in the source
Hepatotoxicity [10] = test system: Hepatotoxicity; remark: listed apart in the source
Hepatotoxicity [11] = test system: Hepatotoxicity; remark: listed apart in the source
Hepatotoxicity [12] = test system: Hepatotoxicity; remark: listed apart in the source
Hepatotoxicity [13] = test system: Hepatotoxicity; remark: listed apart in the source
Hepatotoxicity [14] = test system: Hepatotoxicity; remark: listed apart in the source

CC(C)(C)NCC(O)c1ccc(O)c(CO)c1 (stereo unspecified) [ALBUTEROL]
HepSE_cholelithiasis (Hepatotoxicity [1]; Liver): 0 | HepSE_jaundice (Hepatotoxicity [2]; Liver): 0 | HepSE_cirrhosis (Hepatotoxicity [3]; Liver): 0 | HepSE_hepatomegaly (Hepatotoxicity [4]; Liver): 0 | HepSE_hepatitis (Hepatotoxicity [5]; Liver): 0 | HepSE_liver fatty (Hepatotoxicity [6]; Liver): 0 | HepSE_cholecystitis (Hepatotoxicity [7]; Liver): 0 | HepSE_Combined Scores (Hepatotoxicity [8]; Liver): 0 | HepSE_hepatic failure (Hepatotoxicity [9]; Liver): 0 | HepSE_liver function tests abnormal (Hepatotoxicity [10]; Liver): 0 | HepSE_bilirubinemia (Hepatotoxicity [11]; Liver): 0 | HepSE_liver disease (Hepatotoxicity [12]; Liver): 0 | HepSE_hepatic necrosis (Hepatotoxicity [13]; Liver): 0 | HepSE_elevated liver function tests (Hepatotoxicity [14]; Liver): 0

CC(N)Cc1c[nH]c2ccccc12 (stereo unspecified)
HepSE_cholelithiasis (Hepatotoxicity [1]): 0 | HepSE_jaundice (Hepatotoxicity [2]): 0 | HepSE_cirrhosis (Hepatotoxicity [3]): 0 | HepSE_hepatomegaly (Hepatotoxicity [4]): 0 | HepSE_hepatitis (Hepatotoxicity [5]): 0 | HepSE_liver fatty (Hepatotoxicity [6]): 0 | HepSE_cholecystitis (Hepatotoxicity [7]): 0 | HepSE_Combined Scores (Hepatotoxicity [8]): 0 | HepSE_hepatic failure (Hepatotoxicity [9]): 0 | HepSE_liver function tests abnormal (Hepatotoxicity [10]): 0 | HepSE_bilirubinemia (Hepatotoxicity [11]): 0 | HepSE_liver disease (Hepatotoxicity [12]): 0 | HepSE_hepatic necrosis (Hepatotoxicity [13]): 0 | HepSE_elevated liver function tests (Hepatotoxicity [14]): 0

COc1cc(Br)c(C[N+]2(CCOCCC3CCC4CC3C4(C)C)CCOCC2)cc1OC.[Br-] (stereo unspecified) [PINAVERIUM BROMIDE]
HepSE_cholelithiasis (Hepatotoxicity [1]; Liver): 0 | HepSE_jaundice (Hepatotoxicity [2]; Liver): 0 | HepSE_cirrhosis (Hepatotoxicity [3]; Liver): 0 | HepSE_hepatomegaly (Hepatotoxicity [4]; Liver): 0 | HepSE_hepatitis (Hepatotoxicity [5]; Liver): 0 | HepSE_liver fatty (Hepatotoxicity [6]; Liver): 0 | HepSE_cholecystitis (Hepatotoxicity [7]; Liver): 0 | HepSE_Combined Scores (Hepatotoxicity [8]; Liver): 0 | HepSE_hepatic failure (Hepatotoxicity [9]; Liver): 0 | HepSE_liver function tests abnormal (Hepatotoxicity [10]; Liver): 0 | HepSE_bilirubinemia (Hepatotoxicity [11]; Liver): 0 | HepSE_liver disease (Hepatotoxicity [12]; Liver): 0 | HepSE_hepatic necrosis (Hepatotoxicity [13]; Liver): 0 | HepSE_elevated liver function tests (Hepatotoxicity [14]; Liver): 0

CC=CC1=C(C(=O)O)N2C(=O)[C@@H](NC(=O)[C@H](N)c3ccc(O)cc3)[C@H]2SC1 [CEFPROZIL]
HepSE_cholelithiasis (Hepatotoxicity [1]): 0 | HepSE_jaundice (Hepatotoxicity [2]): 1 | HepSE_cirrhosis (Hepatotoxicity [3]): 0 | HepSE_hepatomegaly (Hepatotoxicity [4]): 0 | HepSE_hepatitis (Hepatotoxicity [5]): 0 | HepSE_liver fatty (Hepatotoxicity [6]): 0 | HepSE_cholecystitis (Hepatotoxicity [7]): 0 | HepSE_Combined Scores (Hepatotoxicity [8]): 1 | HepSE_hepatic failure (Hepatotoxicity [9]): 0 | HepSE_liver function tests abnormal (Hepatotoxicity [10]): 0 | HepSE_bilirubinemia (Hepatotoxicity [11]): 0 | HepSE_liver disease (Hepatotoxicity [12]): 0 | HepSE_hepatic necrosis (Hepatotoxicity [13]): 0 | HepSE_elevated liver function tests (Hepatotoxicity [14]): 0

N=C(N)NC(=O)Cc1c(Cl)cccc1Cl [GUANFACINE]
HepSE_cholelithiasis (Hepatotoxicity [1]): 0 | HepSE_jaundice (Hepatotoxicity [2]): 0 | HepSE_cirrhosis (Hepatotoxicity [3]): 0 | HepSE_hepatomegaly (Hepatotoxicity [4]): 0 | HepSE_hepatitis (Hepatotoxicity [5]): 0 | HepSE_liver fatty (Hepatotoxicity [6]): 0 | HepSE_cholecystitis (Hepatotoxicity [7]): 0 | HepSE_Combined Scores (Hepatotoxicity [8]): 1 | HepSE_hepatic failure (Hepatotoxicity [9]): 0 | HepSE_liver function tests abnormal (Hepatotoxicity [10]): 1 | HepSE_bilirubinemia (Hepatotoxicity [11]): 0 | HepSE_liver disease (Hepatotoxicity [12]): 0 | HepSE_hepatic necrosis (Hepatotoxicity [13]): 0 | HepSE_elevated liver function tests (Hepatotoxicity [14]): 0

CC(=O)Oc1ccccc1C(=O)O [ASPIRIN]
HepSE_cholelithiasis (Hepatotoxicity [1]): 0 | HepSE_jaundice (Hepatotoxicity [2]): 0 | HepSE_cirrhosis (Hepatotoxicity [3]): 0 | HepSE_hepatomegaly (Hepatotoxicity [4]): 0 | HepSE_hepatitis (Hepatotoxicity [5]): 0 | HepSE_liver fatty (Hepatotoxicity [6]): 0 | HepSE_cholecystitis (Hepatotoxicity [7]): 0 | HepSE_Combined Scores (Hepatotoxicity [8]): 0 | HepSE_hepatic failure (Hepatotoxicity [9]): 0 | HepSE_liver function tests abnormal (Hepatotoxicity [10]): 0 | HepSE_bilirubinemia (Hepatotoxicity [11]): 0 | HepSE_liver disease (Hepatotoxicity [12]): 0 | HepSE_hepatic necrosis (Hepatotoxicity [13]): 0 | HepSE_elevated liver function tests (Hepatotoxicity [14]): 0

CCN(CC)CCOC(=O)C1(C2CCCCC2)CCCCC1 [DICYCLOMINE]
HepSE_cholelithiasis (Hepatotoxicity [1]): 0 | HepSE_jaundice (Hepatotoxicity [2]): 0 | HepSE_cirrhosis (Hepatotoxicity [3]): 0 | HepSE_hepatomegaly (Hepatotoxicity [4]): 0 | HepSE_hepatitis (Hepatotoxicity [5]): 0 | HepSE_liver fatty (Hepatotoxicity [6]): 0 | HepSE_cholecystitis (Hepatotoxicity [7]): 0 | HepSE_Combined Scores (Hepatotoxicity [8]): 0 | HepSE_hepatic failure (Hepatotoxicity [9]): 0 | HepSE_liver function tests abnormal (Hepatotoxicity [10]; Liver): 0 | HepSE_bilirubinemia (Hepatotoxicity [11]): 0 | HepSE_liver disease (Hepatotoxicity [12]): 0 | HepSE_hepatic necrosis (Hepatotoxicity [13]): 0 | HepSE_elevated liver function tests (Hepatotoxicity [14]; Liver): 0

NC(=O)c1ncn([C@@H]2O[C@H](CO)[C@@H](O)[C@H]2O)n1 [RIBAVIRIN]
HepSE_cholelithiasis (Hepatotoxicity [1]): 0 | HepSE_jaundice (Hepatotoxicity [2]): 0 | HepSE_cirrhosis (Hepatotoxicity [3]): 0 | HepSE_hepatomegaly (Hepatotoxicity [4]): 1 | HepSE_hepatitis (Hepatotoxicity [5]): 0 | HepSE_liver fatty (Hepatotoxicity [6]): 1 | HepSE_cholecystitis (Hepatotoxicity [7]): 0 | HepSE_Combined Scores (Hepatotoxicity [8]): 4 | HepSE_hepatic failure (Hepatotoxicity [9]): 1 | HepSE_liver function tests abnormal (Hepatotoxicity [10]): 0 | HepSE_bilirubinemia (Hepatotoxicity [11]): 1 | HepSE_liver disease (Hepatotoxicity [12]): 0 | HepSE_hepatic necrosis (Hepatotoxicity [13]): 0 | HepSE_elevated liver function tests (Hepatotoxicity [14]): 0

CC(C)c1cccc(C(C)C)c1O [PROPOFOL]
HepSE_cholelithiasis (Hepatotoxicity [1]; Liver): 0 | HepSE_jaundice (Hepatotoxicity [2]; Liver): 0 | HepSE_cirrhosis (Hepatotoxicity [3]; Liver): 0 | HepSE_hepatomegaly (Hepatotoxicity [4]; Liver): 1 | HepSE_hepatitis (Hepatotoxicity [5]; Liver): 0 | HepSE_liver fatty (Hepatotoxicity [6]; Liver): 0 | HepSE_cholecystitis (Hepatotoxicity [7]; Liver): 0 | HepSE_Combined Scores (Hepatotoxicity [8]; Liver): 1 | HepSE_hepatic failure (Hepatotoxicity [9]; Liver): 0 | HepSE_liver function tests abnormal (Hepatotoxicity [10]; Liver): 0 | HepSE_bilirubinemia (Hepatotoxicity [11]; Liver): 0 | HepSE_liver disease (Hepatotoxicity [12]; Liver): 0 | HepSE_hepatic necrosis (Hepatotoxicity [13]; Liver): 0 | HepSE_elevated liver function tests (Hepatotoxicity [14]; Liver): 0
